Test results published in article PMC7914897, “Cytotoxic Potential of a-Azepano- and 3-Amino-3,4-SeCo-Triterpenoids” (International Journal of Molecular Sciences, 2021).
Where two headings read alike, the source gives them in different places.

Assays:
LOX IMVI (Melanoma) = test: NCI-60 screen (SRB, 48 h); assay type: cell-based; conditions: Homo sapiens; for IC (TGI) / activity at 10 µM: 48 h; for activity at 10 µM: 1 dose 10 µM, read-out: Growth % of the Most Sensitive Cell Lines; for CC50: read-out: LC50 (the source's name)
MDA-MB-435 (Melanoma) = test: NCI-60 screen (SRB, 48 h); assay type: cell-based; conditions: Homo sapiens; for GI50 / CC50: MDA-MB-435; for IC (TGI): MDA-MB-435, 48 h, read-out: TGI; for CC50: read-out: LC50 (the source's name)
OVCAR-4 (Ovarian cancer) = test: NCI-60 screen (SRB, 48 h); assay type: cell-based; conditions: Homo sapiens; for IC (TGI): OVCAR-4, 48 h; for GI50: read-out: GI50
BT-549 (Breast cancer) = test: NCI-60 screen (SRB, 48 h); assay type: cell-based; conditions: Homo sapiens; for IC (TGI): BT-549, 48 h
Leukemia subpanel = test: cells; conditions: Homo sapiens; for IC (TGI): 48 h, read-out: TGI MG_MID; for GI50: read-out: GI50 MG_MID; for CC50: read-out: LC50 MG_MID
OVCAR-3 (Ovarian cancer) = test: cells; conditions: Homo sapiens; for GI50: OVCAR-3; for IC (TGI): OVCAR-3, 48 h, read-out: TGI; for CC50: OVCAR-3, read-out: LC50
[1] = tested on: MDA-MB-468 (Breast cancer); test: cells; conditions: Homo sapiens; for GI50: MDA-MB-468; for IC (TGI): MDA-MB-468, 48 h, read-out: TGI; for CC50: MDA-MB-468, read-out: LC50
Colon Cancer subpanel = test: NCI-60 screen, subpanel; conditions: Homo sapiens; for IC (TGI): 48 h, read-out: TGI MG_MID; for GI50: read-out: GI50 MG_MID; for CC50: read-out: LC50 MG_MID
Ovarian Cancer subpanel = test: NCI-60 screen, subpanel; conditions: Homo sapiens; for IC (TGI): 48 h, read-out: TGI MG_MID; for GI50: read-out: GI50 MG_MID; for CC50: read-out: LC50 MG_MID
Breast cancer subpanel = test: NCI-60 screen, subpanel; conditions: Homo sapiens; for IC (TGI): 48 h, read-out: TGI MG_MID; for GI50: read-out: GI50 MG_MID; for CC50: read-out: LC50 MG_MID
MOLT-4 (Leukemia) = test: NCI-60 screen (SRB, 48 h); conditions: Homo sapiens; for GI50: MOLT-4; for CC50: MOLT-4, read-out: LC50
HOP-62 (NSC lung cancer) = test: NCI-60 screen (SRB, 48 h); conditions: Homo sapiens; for GI50: HOP-62; for IC (TGI): HOP-62, 48 h, read-out: TGI; for CC50: HOP-62, read-out: LC50
[2] = tested on: NCI-H23 (NSC lung cancer); test: NCI-60 screen (SRB, 48 h); conditions: Homo sapiens; for GI50: NCI-H23; for IC (TGI): NCI-H23, 48 h, read-out: TGI; for CC50: NCI-H23, read-out: LC50
[3] = tested on: NCI-H460 (NSC lung cancer); test: NCI-60 screen (SRB, 48 h); conditions: for GI50 / IC (TGI) / CC50: Homo sapiens; for GI50: NCI-H460; for IC (TGI): NCI-H460, 48 h, read-out: TGI; for CC50: NCI-H460, read-out: LC50
HT29 (Colon cancer) = test: NCI-60 screen (SRB, 48 h); conditions: Homo sapiens; for GI50: HT-29; for IC (TGI): HT-29, 48 h, read-out: TGI; for CC50: HT-29, read-out: LC50
SF-268 (CNS cancer) = test: NCI-60 screen (SRB, 48 h); conditions: Homo sapiens; for GI50: SF-268; for IC (TGI): SF-268, 48 h, read-out: TGI; for CC50: SF-268, read-out: LC50
SF-539 (CNS cancer) = test: NCI-60 screen (SRB, 48 h); conditions: Homo sapiens; for GI50: SF-539; for IC (TGI): SF-539, 48 h, read-out: TGI; for CC50: SF-539, read-out: LC50
U251 (CNS cancer) = test: NCI-60 screen (SRB, 48 h); conditions: for GI50 / IC (TGI) / CC50: Homo sapiens; for GI50: U-251; for IC (TGI): U-251, 48 h, read-out: TGI; for CC50: U-251, read-out: LC50
SK-MEL-28 (Melanoma) = test: NCI-60 screen (SRB, 48 h); conditions: for GI50 / IC (TGI) / CC50: Homo sapiens; for GI50: SK-MEL-28; for IC (TGI): SK-MEL-28, 48 h, read-out: TGI; for CC50: SK-MEL-28, read-out: LC50; for Growth % of the Most Sensitive Cell Lines: SK-MEL-28, 1 dose 10 µM
SK-MEL-5 (Melanoma) = test: NCI-60 screen (SRB, 48 h); conditions: Homo sapiens; for GI50: SK-MEL-5; for IC (TGI): SK-MEL-5, 48 h, read-out: TGI; for CC50: SK-MEL-5, read-out: LC50
OVCAR-8 (Ovarian cancer) = test: NCI-60 screen (SRB, 48 h); conditions: Homo sapiens; for GI50: OVCAR-8; for IC (TGI): OVCAR-8, 48 h, read-out: TGI; for CC50: OVCAR-8, read-out: LC50
[4] = tested on: NCI/ADR-RES (Ovarian cancer); test: NCI-60 screen (SRB, 48 h); conditions: Homo sapiens; for IC (TGI): 48 h, read-out: TGI; for CC50: read-out: LC50
TK-10 (Renal cancer) = test: NCI-60 screen (SRB, 48 h); conditions: Homo sapiens; for GI50: TK-10; for IC (TGI): TK-10, 48 h, read-out: TGI; for CC50: TK-10, read-out: LC50
DU-145 (Prostate cancer) = test: NCI-60 screen (SRB, 48 h); conditions: Homo sapiens; for GI50: DU-145; for IC (TGI): DU-145, 48 h, read-out: TGI; for CC50: DU-145, read-out: LC50
HS 578T (Breast cancer) = test: NCI-60 screen (SRB, 48 h); conditions: Homo sapiens; for IC (TGI): 48 h, read-out: TGI; for CC50: read-out: LC50

## CC1(C)CC[C@]2(CO)CC[C@]3(C)C(=CC[C@@H]4[C@@]5(C)CCCNC(C)(C)[C@@H]5CC[C@]43C)[C@@H]2C1 [Compound 3, azepanoerythrodiol]
LOX IMVI (Melanoma)
  IC (TGI): 3.19 µM
  activity at 10 µM: -88.2%
  CC50: 6.05 µM
LOX IMVI (Melanoma); read-out: GI50
  GI50: 1.68 µM
MDA-MB-435 (Melanoma)
  GI50: 1.71 µM
  IC (TGI): 3.36 µM
  CC50: 6.59 µM
OVCAR-4 (Ovarian cancer)
  IC (TGI): 17.5 µM
OVCAR-4 (Ovarian cancer); OVCAR-4
  GI50: 4.48 µM
OVCAR-4 (Ovarian cancer); OVCAR-4, read-out: LC50 (the source's name)
  CC50: 45.2 µM
BT-549 (Breast cancer); BT-549
  GI50: 1.01 µM
BT-549 (Breast cancer)
  IC (TGI): 24.5 µM
BT-549 (Breast cancer); BT-549, read-out: LC50 (the source's name)
  CC50: 59.2 µM
Leukemia subpanel
  IC (TGI): 54.8 µM
  GI50: 2.03 µM
  CC50: > 100 µM
OVCAR-3 (Ovarian cancer)
  GI50: 1.96 µM
  IC (TGI): 3.84 µM
  CC50: 7.52 µM
[1]
  GI50: 1.79 µM
  IC (TGI): 3.74 µM
  CC50: 7.81 µM
Colon Cancer subpanel
  IC (TGI): 3.3 µM
  GI50: 1.99 µM
  CC50: 12.4 µM
Ovarian Cancer subpanel
  IC (TGI): 19.1 µM
  GI50: 7.75 µM
  CC50: 45.6 µM
Breast cancer subpanel
  IC (TGI): 14.6 µM
  GI50: 3.12 µM
  CC50: 43.6 µM
MOLT-4 (Leukemia)
  GI50: 2.5 µM
  CC50: > 100 µM
HOP-62 (NSC lung cancer)
  GI50: 5.89 µM
  IC (TGI): 20.4 µM
  CC50: 58.9 µM
[2]
  GI50: 1.11 µM
  IC (TGI): 24.6 µM
  CC50: 54.5 µM
[3]
  GI50: 1.92 µM
  IC (TGI): 3.8 µM
  CC50: 7.56 µM
HT29 (Colon cancer)
  GI50: 1.59 µM
  IC (TGI): 3.62 µM
  CC50: 8.23 µM
SF-268 (CNS cancer)
  GI50: 2.9 µM
  IC (TGI): 9.77 µM
  CC50: 65.6 µM
SF-539 (CNS cancer)
  GI50: 11 µM
  IC (TGI): 2.41 µM
  CC50: 52.7 µM
U251 (CNS cancer)
  GI50: 1.94 µM
  IC (TGI): 4.18 µM
  CC50: 9 µM
SK-MEL-28 (Melanoma)
  GI50: 1.7 µM
  IC (TGI): 3.14 µM
  CC50: 5.78 µM
  Growth % of the Most Sensitive Cell Lines: −81.53%
SK-MEL-5 (Melanoma)
  GI50: 1.68 µM
  IC (TGI): 3.14 µM
  CC50: 5.86 µM
OVCAR-8 (Ovarian cancer)
  GI50: 3.83 µM
  IC (TGI): 15.6 µM
  CC50: 54.1 µM
[4]
  GI50: 10.2 µM
  IC (TGI): 24 µM
  CC50: 56.3 µM
TK-10 (Renal cancer)
  GI50: 4.64 µM
  IC (TGI): 16.7 µM
  CC50: 49.9 µM
DU-145 (Prostate cancer)
  GI50: 2.3 µM
  IC (TGI): 4.7 µM
  CC50: 9.61 µM
HS 578T (Breast cancer)
  GI50: 6.16 µM
  IC (TGI): 24.7 µM
  CC50: 77.4 µM

## C[C@H]1[C@H](C)CC[C@]2(CO)CC[C@]3(C)C(=CC[C@@H]4[C@@]5(C)CCCNC(C)(C)[C@@H]5CC[C@]43C)[C@H]12 [Compound 4, azepanouvaol]
LOX IMVI (Melanoma)
  GI50: 1.59 µM
  IC (TGI): 3.05 µM
  activity at 10 µM: -94.9%
  CC50: 5.84 µM
MDA-MB-435 (Melanoma)
  GI50: 1.59 µM
  IC (TGI): 3.21 µM
  CC50: 6.49 µM
OVCAR-4 (Ovarian cancer)
  IC (TGI): 3.79 µM
OVCAR-4 (Ovarian cancer); OVCAR-4
  GI50: 1.72 µM
BT-549 (Breast cancer); BT-549
  GI50: 1.55 µM
BT-549 (Breast cancer)
  IC (TGI): 2.96 µM
Leukemia subpanel
  IC (TGI): 3.28 µM
  GI50: 1.32 µM
  CC50: 8.02 µM
OVCAR-3 (Ovarian cancer)
  GI50: 1.83 µM
  IC (TGI): 3.42 µM
  CC50: 6.39 µM
[1]
  GI50: 1.7 µM
  IC (TGI): 3.44 µM
  CC50: 6.98 µM
Colon Cancer subpanel
  IC (TGI): 3.07 µM
  GI50: 1.52 µM
  CC50: 6.16 µM
Ovarian Cancer subpanel
  IC (TGI): 3.59 µM
  GI50: 1.91 µM
  CC50: 11.4 µM
Breast cancer subpanel
  IC (TGI): 3.69 µM
  GI50: 1.74 µM
  CC50: 12.6 µM
MOLT-4 (Leukemia)
  GI50: 1.37 µM
  CC50: 7.25 µM
MOLT-4 (Leukemia); MOLT-4, 48 h, read-out: TGI
  IC (TGI): 3.15 µM
HOP-62 (NSC lung cancer)
  GI50: 1.81 µM
  IC (TGI): 3.49 µM
  CC50: 6.52 µM
[2]
  GI50: 1.65 µM
  IC (TGI): 3.26 µM
  CC50: 6.47 µM
[3]
  GI50: 1.78 µM
  IC (TGI): 3.35 µM
  CC50: 6.3 µM
[3]; NCI-H460, 1 dose 10 µM
  Growth % of the Most Sensitive Cell Lines: −83.30%
HT29 (Colon cancer)
  GI50: 0.63 µM
  IC (TGI): 1.97 µM
  CC50: 4.85 µM
SF-268 (CNS cancer)
  GI50: 1.79 µM
  IC (TGI): 3.5 µM
  CC50: 6.84 µM
SF-539 (CNS cancer)
  GI50: 1.69 µM
  IC (TGI): 3.16 µM
  CC50: 5.9 µM
U251 (CNS cancer)
  GI50: 1.67 µM
  IC (TGI): 3.15 µM
  CC50: 5.94 µM
U251 (CNS cancer); U251, 1 dose 10 µM
  Growth % of the Most Sensitive Cell Lines: −83.30%
SK-MEL-28 (Melanoma)
  GI50: 1.75 µM
  IC (TGI): 3.3 µM
  CC50: 6.22 µM
  Growth % of the Most Sensitive Cell Lines: −84.86%
SK-MEL-5 (Melanoma)
  GI50: 1.7 µM
  IC (TGI): 3.09 µM
  CC50: 5.62 µM
OVCAR-8 (Ovarian cancer)
  GI50: 1.96 µM
  IC (TGI): 3.61 µM
  CC50: 6.67 µM
[4]
  GI50: 1.76 µM
  IC (TGI): 3.47 µM
  CC50: 6.84 µM
TK-10 (Renal cancer)
  GI50: 1.84 µM
  IC (TGI): 3.32 µM
  CC50: 5.97 µM
DU-145 (Prostate cancer)
  GI50: 1.72 µM
  IC (TGI): 3.14 µM
  CC50: 5.75 µM
HS 578T (Breast cancer)
  GI50: 2.05 µM
  IC (TGI): 4.86 µM
  CC50: 32.6 µM
